The results in this text go back to patent US20260022142A1, “MACROCYCLIC IMMUNOMODULATORS” (Bristol-Myers Squibb Company, priority 2022, published 2026).

The structures appear in SMILES notation. Bridge positions count the residues as written; N and C are the ends. Square brackets hold non-standard residues; d marks the D form. Peptide text beside a SMILES is read from it. * marks the point of attachment. Phe(3-CF3) = N[C@@H](Cc1cccc(C(F)(F)F)c1)C(=O)O; Ala(morpholin-4-yl) = N[C@@H](CN1CCOCC1)C(=O)O; Phe(4-COOH) = N[C@@H](Cc1ccc(C(=O)O)cc1)C(=O)O; Bip = N[C@@H](Cc1ccc(-c2ccccc2)cc1)C(=O)O; NH(CH2)14COOH = O=C(O)CCCCCCCCCCCCCCN*; Phe(3-Me) = Cc1cccc(C[C@H](N)C(=O)O)c1; NH(CH2)12COOH = O=C(O)CCCCCCCCCCCCN*; Val(3-OH) = CC(C)(O)[C@H](N)C(=O)O; Cha = N[C@@H](CC1CCCCC1)C(=O)O; dDab = NCC[C@@H](N)C(=O)O; Carboxymethyl = O=C(O)C*; Nle = CCCC[C@H](N)C(=O)O; Orn = NCCC[C@H](N)C(=O)O; Dab = NCC[C@H](N)C(=O)O; AEEA = NCCOCCOCC(=O)O

T1 sequence (Q15116 25-288): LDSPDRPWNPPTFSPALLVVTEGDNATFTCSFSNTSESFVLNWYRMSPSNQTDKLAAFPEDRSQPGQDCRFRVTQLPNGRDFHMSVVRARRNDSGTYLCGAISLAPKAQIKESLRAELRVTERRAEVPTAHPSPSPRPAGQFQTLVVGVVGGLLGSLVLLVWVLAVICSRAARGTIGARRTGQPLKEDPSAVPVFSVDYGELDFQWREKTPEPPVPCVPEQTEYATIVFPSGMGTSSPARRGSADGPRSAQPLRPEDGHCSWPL

This test has as its target T1, PD-1/PD-L1 interaction (PE-labeled human PD-L1-Ig binding to Jurkat cell line over-expressing human PD-1) (Homo sapiens, UniProt Q15116).
T1 construct: expressed in transfected cells; host or cells: Jurkat
The test is described as follows: Jurkat-PD-1 Cell Binding High-Content Screening Assay (CBA). The class given is cell-based. Conditions: Jurkat cell line over-expressing human PD-1; PE-labeled PD-L1-Ig 20 nM final; read-out: Jurkat hPD1-PDL1 IC50. An outline of the steps: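 First, compound is added to PD-1-expressing Jurkat cells in serum-containing DMEM and left 2 h at 37° C. Next, PE-conjugated PD-L1-Ig is introduced at 20 nM final concentration for 1 hour. Finally, cells are fixed in 4% paraformaldehyde with Hoechst 33342, washed and imaged.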
As a reminder, the IC50 is the concentration that inhibits the measured activity by half. Turning to `CCCC[C@@H]1NC(=O)CSC[C@@H](C(=O)N[C@H](CCN)C(=O)NCCOCCOCC(=O)NCCOCCOCC(=O)NCCCCCCCCCCCCC(=O)O)NC(=O)[C@H](CO)NC(=O)[C@H](C(C)(C)O)NC(=O)[C@H](CC2CCCCC2)NC(=O)[C@H](CCN)NC(=O)[C@@H](CC(C)C)NC(=O)[C@H](CCCN)NC(=O)[C@H](Cc2ccc(C(=O)O)cc2)NC(=O)[C@H](Cc2ccc(-c3ccccc3)cc2)NC(=O)[C@H](Cc2ccc(C(=O)O)cc2)NC(=O)[C@H](Cc2cccc(C(F)(F)F)c2)NC(=O)[C@H](CC(=O)O)NC(=O)[C@H](Cc2ccc(OCC(=O)O)cc2)NC1=O` [Compound 3827] ({CH2CO}-[Nle]Y(Carboxymethyl)D[Phe(3-CF3)][Phe(4-COOH)][Bip][Phe(4-COOH)][Orn][dL][Dab][Cha][Val(3-OH)]SC[dDab][AEEA][AEEA]-{NH(CH2)12COOH}; thioether N-14), the half-inhibitory concentration (IC50) turned out to be 141 nM.
The result for `CC(C)C[C@H]1NC(=O)[C@H](CCCN)NC(=O)[C@H](Cc2ccc(C(=O)O)cc2)NC(=O)[C@H](Cc2ccc(-c3ccccc3)cc2)NC(=O)[C@H](Cc2ccc(C(=O)O)cc2)NC(=O)[C@H](Cc2cccc(C(F)(F)F)c2)NC(=O)[C@H](CC(=O)O)NC(=O)[C@H](Cc2ccc(OCC(=O)O)cc2)NC(=O)[C@H](CN2CCOCC2)NC(=O)CSC[C@@H](C(=O)N[C@H](CCN)C(=O)NCCOCCOCC(=O)NCCOCCOCC(=O)NCCCCCCCCCCCCC(=O)O)NC(=O)[C@H](CO)NC(=O)[C@H](C(C)(C)O)NC(=O)[C@H](CC2CCCCC2)NC(=O)[C@H](CCN)NC1=O` [Compound 3828] ({CH2CO}-[Ala(morpholin-4-yl)]Y(Carboxymethyl)D[Phe(3-CF3)][Phe(4-COOH)][Bip][Phe(4-COOH)][Orn][dL][Dab][Cha][Val(3-OH)]SC[dDab][AEEA][AEEA]-{NH(CH2)12COOH}; thioether N-14) reads 216 nM; that for `CCCC[C@@H]1NC(=O)CSC[C@@H](C(=O)N[C@@H](CCN)C(=O)NCCOCCOCC(=O)NCCOCCOCC(=O)NCCCCCCCCCCCCC(=O)O)NC(=O)[C@H](CO)NC(=O)[C@H](C(C)(C)O)NC(=O)[C@H](CC2CCCCC2)NC(=O)[C@H](CCN)NC(=O)[C@@H](CC(C)C)NC(=O)[C@H](CCCN)NC(=O)[C@H](Cc2ccc(OCC(=O)O)cc2)NC(=O)[C@H](Cc2ccc(-c3ccccc3)cc2)NC(=O)[C@H](Cc2ccc(OCC(=O)O)cc2)NC(=O)[C@H](Cc2cccc(C(F)(F)F)c2)NC(=O)[C@H](CC(=O)O)NC(=O)[C@H](Cc2ccc(OCC(=O)O)cc2)NC1=O` [Compound 3829] ({CH2CO}-[Nle]Y(Carboxymethyl)D[Phe(3-CF3)]Y(Carboxymethyl)[Bip]Y(Carboxymethyl)[Orn][dL][Dab][Cha][Val(3-OH)]SC[Dab][AEEA][AEEA]-{NH(CH2)12COOH}; thioether N-14), 19.2 nM; that for `CC(C)C[C@H]1NC(=O)[C@H](CCCN)NC(=O)[C@H](Cc2ccc(C(=O)O)cc2)NC(=O)[C@H](Cc2ccc(-c3ccccc3)cc2)NC(=O)[C@H](Cc2ccc(C(=O)O)cc2)NC(=O)[C@H](Cc2cccc(C(F)(F)F)c2)NC(=O)[C@H](CC(=O)O)NC(=O)[C@H](Cc2ccc(OCC(=O)O)cc2)NC(=O)[C@H](CC2CCCCC2)NC(=O)CSC[C@@H](C(=O)N[C@@H](CCN)C(=O)NCCOCCOCC(=O)NCCOCCOCC(=O)NCCCCCCCCCCCCCCC(=O)O)NC(=O)[C@H](CO)NC(=O)[C@H](C(C)(C)O)NC(=O)[C@H](CC2CCCCC2)NC(=O)[C@H](CCN)NC1=O` [Compound 3830] ({CH2CO}-[Cha]Y(Carboxymethyl)D[Phe(3-CF3)][Phe(4-COOH)][Bip][Phe(4-COOH)][Orn][dL][Dab][Cha][Val(3-OH)]SC[Dab][AEEA][AEEA]-{NH(CH2)14COOH}; thioether N-14), 200 nM.
The result for `CC(C)C[C@H]1NC(=O)[C@H](CCCN)NC(=O)[C@H](Cc2ccc(C(=O)O)cc2)NC(=O)[C@H](Cc2ccc(-c3ccccc3)cc2)NC(=O)[C@H](Cc2ccc(C(=O)O)cc2)NC(=O)[C@H](Cc2cccc(C(F)(F)F)c2)NC(=O)[C@H](CC(=O)O)NC(=O)[C@H](Cc2ccc(OCC(=O)O)cc2)NC(=O)[C@H](CC2CCCCC2)NC(=O)CSC[C@@H](C(=O)N[C@H](CCN)C(=O)NCCOCCOCC(=O)NCCOCCOCC(=O)NCCCCCCCCCCCCC(=O)O)NC(=O)[C@H](CO)NC(=O)[C@H](C(C)(C)O)NC(=O)[C@H](CC2CCCCC2)NC(=O)[C@H](CCN)NC1=O` [Compound 3831] ({CH2CO}-[Cha]Y(Carboxymethyl)D[Phe(3-CF3)][Phe(4-COOH)][Bip][Phe(4-COOH)][Orn][dL][Dab][Cha][Val(3-OH)]SC[dDab][AEEA][AEEA]-{NH(CH2)12COOH}; thioether N-14) reads 22.5 nM.
For `CC(C)C[C@@H]1NC(=O)CSC[C@@H](C(=O)N[C@@H](CCN)C(=O)NCCCCCCCCCCCCC(=O)O)NC(=O)[C@H](CO)NC(=O)[C@H](C(C)(C)O)NC(=O)[C@H](CC2CCCCC2)NC(=O)[C@H](CCN)NC(=O)[C@@H](CC(C)C)NC(=O)[C@H](CCCN)NC(=O)[C@H](Cc2ccc(OCC(=O)O)cc2)NC(=O)[C@H](Cc2ccc(-c3ccccc3)cc2)NC(=O)[C@H](Cc2ccc(OCC(=O)O)cc2)NC(=O)[C@H](Cc2cccc(C(F)(F)F)c2)NC(=O)[C@H](CC(=O)O)NC(=O)[C@H](Cc2ccc(OCC(=O)O)cc2)NC1=O` [Compound 3835] ({CH2CO}-LY(Carboxymethyl)D[Phe(3-CF3)]Y(Carboxymethyl)[Bip]Y(Carboxymethyl)[Orn][dL][Dab][Cha][Val(3-OH)]SC[Dab]-{NH(CH2)12COOH}; thioether N-14) the value was 28.3 nM; for `CC(C)C[C@H]1NC(=O)[C@H](CCCN)NC(=O)[C@H](Cc2ccc(OCC(=O)O)cc2)NC(=O)[C@H](Cc2ccc(-c3ccccc3)cc2)NC(=O)[C@H](Cc2ccc(OCC(=O)O)cc2)NC(=O)[C@H](Cc2cccc(C(F)(F)F)c2)NC(=O)[C@H](CC(=O)O)NC(=O)[C@H](Cc2ccc(OCC(=O)O)cc2)NC(=O)[C@H](Cc2cnc[nH]2)NC(=O)CSC[C@@H](C(=O)N[C@@H](CCN)C(=O)NCCCCCCCCCCCCC(=O)O)NC(=O)[C@H](CO)NC(=O)[C@H](C(C)(C)O)NC(=O)[C@H](CC2CCCCC2)NC(=O)[C@H](CCN)NC1=O` [Compound 3836] ({CH2CO}-HY(Carboxymethyl)D[Phe(3-CF3)]Y(Carboxymethyl)[Bip]Y(Carboxymethyl)[Orn][dL][Dab][Cha][Val(3-OH)]SC[Dab]-{NH(CH2)12COOH}; thioether N-14), 45.6 nM; for `CC(C)C[C@H]1NC(=O)[C@H](CCCN)NC(=O)[C@H](Cc2ccc(C(=O)O)cc2)NC(=O)[C@H](Cc2ccc(-c3ccccc3)cc2)NC(=O)[C@H](Cc2ccc(C(=O)O)cc2)NC(=O)[C@H](Cc2cccc(C(F)(F)F)c2)NC(=O)[C@H](CC(=O)O)NC(=O)[C@H](Cc2ccc(OCC(=O)O)cc2)NC(=O)[C@H](Cc2ccc(OCC(=O)O)cc2)NC(=O)CSC[C@@H](C(=O)N[C@@H](CCN)C(=O)NCCOCCOCC(=O)NCCOCCOCC(=O)NCCCCCCCCCCCCCCC(=O)O)NC(=O)[C@H](CO)NC(=O)[C@H](C(C)(C)O)NC(=O)[C@H](CC2CCCCC2)NC(=O)[C@H](CCN)NC1=O` [Compound 3839] ({CH2CO}-Y(Carboxymethyl)Y(Carboxymethyl)D[Phe(3-CF3)][Phe(4-COOH)][Bip][Phe(4-COOH)][Orn][dL][Dab][Cha][Val(3-OH)]SC[Dab][AEEA][AEEA]-{NH(CH2)14COOH}; thioether N-14), 178 nM.
Turning to `CC(C)C[C@H]1NC(=O)[C@H](Cc2cnc[nH]2)NC(=O)[C@H](Cc2ccc(C(=O)O)cc2)NC(=O)[C@H](Cc2ccc(-c3ccccc3)cc2)NC(=O)[C@H](Cc2ccc(C(=O)O)cc2)NC(=O)[C@H](Cc2cccc(C(F)(F)F)c2)NC(=O)[C@H](CC(=O)O)NC(=O)[C@H](Cc2ccc(OCC(=O)O)cc2)NC(=O)[C@H](Cc2ccc(OCC(=O)O)cc2)NC(=O)CSC[C@@H](C(=O)N[C@@H](CCN)C(=O)NCCOCCOCC(=O)NCCOCCOCC(=O)NCCCCCCCCCCCCCCC(=O)O)NC(=O)[C@H](CO)NC(=O)[C@H](C(C)(C)O)NC(=O)[C@H](CC2CCCCC2)NC(=O)[C@H](CCN)NC1=O` [Compound 3840] ({CH2CO}-Y(Carboxymethyl)Y(Carboxymethyl)D[Phe(3-CF3)][Phe(4-COOH)][Bip][Phe(4-COOH)]H[dL][Dab][Cha][Val(3-OH)]SC[Dab][AEEA][AEEA]-{NH(CH2)14COOH}; thioether N-14), the half-inhibitory concentration (IC50) amounted to 340 nM.
The result for `CCCC[C@@H]1NC(=O)CSC[C@@H](C(=O)N[C@@H](CCN)C(=O)NCCOCCOCC(=O)NCCCCCCCCCCCCC(=O)O)NC(=O)[C@H](CO)NC(=O)[C@H](C(C)(C)O)NC(=O)[C@H](CC2CCCCC2)NC(=O)[C@H](CCN)NC(=O)[C@@H](CC(C)C)NC(=O)[C@H](CCCN)NC(=O)[C@H](Cc2ccc(C(=O)O)cc2)NC(=O)[C@H](Cc2ccc(-c3ccccc3)cc2)NC(=O)[C@H](Cc2ccc(C(=O)O)cc2)NC(=O)[C@H](Cc2cccc(C)c2)NC(=O)[C@H](CC(=O)O)NC(=O)[C@H](Cc2ccc(OCC(=O)O)cc2)NC1=O` [Compound 3841] ({CH2CO}-[Nle]Y(Carboxymethyl)D[Phe(3-Me)][Phe(4-COOH)][Bip][Phe(4-COOH)][Orn][dL][Dab][Cha][Val(3-OH)]SC[Dab][AEEA]-{NH(CH2)12COOH}; thioether N-14) reads 34.1 nM; that for `Cc1cccc(C[C@@H]2NC(=O)[C@H](CC(=O)O)NC(=O)[C@H](Cc3ccc(OCC(=O)O)cc3)NC(=O)[C@H](Cc3ccc(OCC(=O)O)cc3)NC(=O)CSC[C@@H](C(=O)N[C@@H](CCN)C(=O)NCCOCCOCC(=O)NCCCCCCCCCCCCC(=O)O)NC(=O)[C@H](CO)NC(=O)[C@H](C(C)(C)O)NC(=O)[C@H](CC3CCCCC3)NC(=O)[C@H](CCN)NC(=O)[C@@H](CC(C)C)NC(=O)[C@H](CCCN)NC(=O)[C@H](Cc3ccc(C(=O)O)cc3)NC(=O)[C@H](Cc3ccc(-c4ccccc4)cc3)NC(=O)[C@H](Cc3ccc(C(=O)O)cc3)NC2=O)c1` [Compound 3842] ({CH2CO}-Y(Carboxymethyl)Y(Carboxymethyl)D[Phe(3-Me)][Phe(4-COOH)][Bip][Phe(4-COOH)][Orn][dL][Dab][Cha][Val(3-OH)]SC[Dab][AEEA]-{NH(CH2)12COOH}; thioether N-14), 16.1 nM.
